Several values for one entry are separate records, joined by “and”; a condition that tells them apart may be missing. Equal entries are not always repeated. Toxic doses and inconclusive results are not listed. Non-standard residues stand in square brackets, D forms with d. Residues, ends and D or L forms follow the SMILES beside them. ξ: configuration not given here. *: point of attachment. ξF = NC(Cc1ccccc1)C(=O)O; Cbz = O=C(OCc1ccccc1)*
Tested on: CD2F1 mice, L1210 leukemia ip, survival T/C
Assay: NCI In Vivo Anticancer Drug Screen. Data for tumor model L1210 Leukemia (intraperitoneal) in CD2F1 (CDF1) mice
Conditions: endpoint: mean survival time, higher = longer survival
Method in brief: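 Transplantable tumor in mice; compound-treated vs vehicle-treated groups. Read-out = treated/control ratio of the measured endpoint.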

[1] = dose: 50.0 mg/kg/injection, schedule: Q04DX002 (ip), vehicle: saline with Tween-80
[2] = dose: 400.0 mg/kg/injection, schedule: Q04DX003 (ip), vehicle: saline with Tween-80
[3] = dose: 100.0 mg/kg/injection, schedule: Q01DX001 (ip), vehicle: saline with Tween-80
[4] = dose: 200.0 mg/kg/injection, schedule: Q01DX001 (ip), vehicle: saline with Tween-80
[5] = dose: 400.0 mg/kg/injection, schedule: Q01DX001 (ip), vehicle: saline with Tween-80
[6] = dose: 100.0 mg/kg/injection, schedule: Q01DX009 (ip), vehicle: saline
[7] = dose: 200.0 mg/kg/injection, schedule: Q01DX009 (ip), vehicle: saline
[8] = dose: 100.0 mg/kg/injection, schedule: Q04DX003 (ip), vehicle: saline with Tween-80
[9] = dose: 200.0 mg/kg/injection, schedule: Q04DX003 (ip), vehicle: saline with Tween-80
[10] = dose: 100.0 mg/kg/injection, schedule: Q01DX001 (ip), vehicle: Klucel (hydroxypropylcellulose) (HPC)
[11] = dose: 200.0 mg/kg/injection, schedule: Q01DX001 (ip), vehicle: Klucel (hydroxypropylcellulose) (HPC)
[12] = dose: 400.0 mg/kg/injection, schedule: Q01DX001 (ip), vehicle: Klucel (hydroxypropylcellulose) (HPC)
[13] = dose: 12.5 mg/kg/injection, schedule: Q01DX009 (ip), vehicle: water
[14] = dose: 25.0 mg/kg/injection, schedule: Q01DX009 (ip), vehicle: water
[15] = dose: 50.0 mg/kg/injection, schedule: Q01DX009 (ip), vehicle: water
[16] = dose: 100.0 mg/kg/injection, schedule: Q01DX009 (ip), vehicle: saline with Tween-80
[17] = dose: 200.0 mg/kg/injection, schedule: Q01DX009 (ip), vehicle: saline with Tween-80
[18] = dose: 100.0 mg/kg/injection, schedule: Q04DX002 (ip), vehicle: saline with Tween-80
[19] = dose: 200.0 mg/kg/injection, schedule: Q04DX002 (ip), vehicle: saline with Tween-80
[20] = dose: 400.0 mg/kg/injection, schedule: Q04DX002 (ip), vehicle: saline with Tween-80

## C[SeH]C.C[SeH]C.[Cl][Pt][Cl]
dose: 0.94 mg/kg/injection, schedule: Q04DX003 (ip), vehicle: saline
  T/C: 100 % of control
dose: 1.88 mg/kg/injection, schedule: Q04DX003 (ip), vehicle: saline
  T/C: 97 % of control
dose: 3.75 mg/kg/injection, schedule: Q04DX003 (ip), vehicle: saline
  T/C: 97 % of control
dose: 7.5 mg/kg/injection, schedule: Q04DX003 (ip), vehicle: saline
  T/C: 100 % of control
dose: 15.0 mg/kg/injection, schedule: Q04DX003 (ip), vehicle: saline
  T/C: 100 % of control
dose: 30.0 mg/kg/injection, schedule: Q04DX003 (ip), vehicle: saline
  T/C: 105 % of control

## CC[C@@]1(O)C[C@H](OC2CC(N(C)C)C(OC3CC(O)C(OC4CCC(=O)C(C)O4)C(C)O3)C(C)O2)c2c(cc3c(c2O)C(=O)c2c(O)cccc2C3=O)[C@H]1C(=O)OC (stereo partly drawn)
dose: 0.12 mg/kg/injection, schedule: Q01DX009 (ip), vehicle: water
  T/C: 97 % of control
dose: 0.25 mg/kg/injection, schedule: Q01DX009 (ip), vehicle: water
  T/C: 92 % of control
dose: 0.5 mg/kg/injection, schedule: Q01DX009 (ip), vehicle: water
  T/C: 95 % of control
dose: 1.0 mg/kg/injection, schedule: Q01DX009 (ip), vehicle: water
  T/C: 90 % of control
dose: 2.0 mg/kg/injection, schedule: Q01DX009 (ip), vehicle: water
  T/C: 106 % of control
dose: 4.0 mg/kg/injection, schedule: Q01DX009 (ip), vehicle: water
  T/C: 108 % of control
dose: 8.0 mg/kg/injection, schedule: Q01DX009 (ip), vehicle: water
  T/C: 86 % of control
[1]
  T/C: 87 % of control

## Cn1nc2ccccc2n1
dose: 118.0 mg/kg/injection, schedule: Q04DX003 (ip), vehicle: saline with Tween-80
  T/C: 104 % of control
dose: 178.0 mg/kg/injection, schedule: Q04DX003 (ip), vehicle: saline with Tween-80
  T/C: 98 % of control
dose: 266.0 mg/kg/injection, schedule: Q04DX003 (ip), vehicle: saline with Tween-80
  T/C: 109 % of control
[2]
  T/C: 96 % of control

## c1ccc(CCc2nc(-c3ccccc3)cc(-c3ccccc3)n2)cc1
[3]
  T/C: 89 % of control
[4]
  T/C: 92 % of control
[5]
  T/C: 87 % of control

## CCCC1OC(C)CC(C)(C)O1 (stereo not drawn)
dose: 50.0 mg/kg/injection, schedule: Q01DX009 (ip), vehicle: saline
  T/C: 94 % of control
[6]
  T/C: 110 % of control
[7]
  T/C: 90 % of control

## NNC(=O)c1nc(N)n[nH]1
[8]
  T/C: 101 % of control
[9]
  T/C: 103 % of control
[2]
  T/C: 104 % of control

## CCCCC(O)CCCCCCCCCC(=O)O (stereo not drawn)
[8]
  T/C: 97 % of control
[9]
  T/C: 101 % of control

## S=C1N(C2CCCCC2)CCN1C1CCCCC1
dose: 25.0 mg/kg/injection, schedule: Q01DX001 (ip), vehicle: Klucel (hydroxypropylcellulose) (HPC)
  T/C: 108 % of control
dose: 50.0 mg/kg/injection, schedule: Q01DX001 (ip), vehicle: Klucel (hydroxypropylcellulose) (HPC)
  T/C: 108 % of control
[10]
  T/C: 103 % of control

## CCOC(=O)Nc1cc(NCc2ccccc2)c2[nH]cnc2n1
[10]
  T/C: 89 % of control
[11]
  T/C: 95 % of control
[12]
  T/C: 98 % of control

## CC(CC(C(=O)O)C(=O)O)C(=O)O (stereo not drawn)
[13]
  T/C: 93 % of control
[14]
  T/C: 93 % of control
[15]
  T/C: 93 % of control
dose: 100.0 mg/kg/injection, schedule: Q01DX009 (ip), vehicle: water
  T/C: 91 % of control

## CCNc1nc(NC(C)C)nc(SC)n1
dose: 50.0 mg/kg/injection, schedule: Q01DX009 (ip), vehicle: saline with Tween-80
  T/C: 104 % of control
[16]
  T/C: 101 % of control
dose: 100.0 mg/kg/injection, schedule: Q04DX003 (ip), vehicle: saline
  T/C: 97 % of control
[17]
  T/C: 117 % of control
dose: 200.0 mg/kg/injection, schedule: Q04DX003 (ip), vehicle: saline
  T/C: 101 % of control

## COC(=O)c1ccccc1NC(=O)Nc1cccc(OC)c1
[10]
  T/C: 95 % of control
[11]
  T/C: 101 % of control
[12]
  T/C: 95 % of control

## O=C(CNC(=O)OCc1ccccc1)NCC(=O)NC(Cc1ccccc1)C(=O)O (stereo not drawn) (Cbz-Gly-Gly-[ξF]-OH)
[8]
  T/C: 96 % of control
[9]
  T/C: 93 % of control
[2]
  T/C: 93 % of control

## COc1cccc(/C=C(\C(=O)O)c2cccc(OC)c2)c1
[1]
  T/C: 89 % of control
[18]
  T/C: 86 % of control
[19]
  T/C: 104 % of control

## CCOC(CNc1ccc([N+](=O)[O-])cc1)OCC
[3]
  T/C: 95 % of control and 100 % of control
[16]
  T/C: 100 % of control and 106 % of control
[18]
  T/C: 100 % of control
[8]
  T/C: 94 % of control
[4]
  T/C: 92 % of control and 97 % of control
[17]
  T/C: 100 % of control and 102 % of control
[19]
  T/C: 98 % of control
[9]
  T/C: 104 % of control
[5]
  T/C: 101 % of control and 103 % of control
dose: 400.0 mg/kg/injection, schedule: Q01DX009 (ip), vehicle: saline with Tween-80
  T/C: 120 % of control and 111 % of control
[20]
  T/C: 100 % of control
[2]
  T/C: 96 % of control

## O=C(O)c1cccc(-c2ccccc2)c1
[6]
  T/C: 104 % of control
[7]
  T/C: 154 % of control
dose: 400.0 mg/kg/injection, schedule: Q01DX009 (ip), vehicle: saline
  T/C: 93 % of control

## Cc1ccc(S(=O)(=O)OCC2OCOC(C(O)CO)C2O)cc1 (stereo not drawn)
dose: 50.0 mg/kg/injection, schedule: Q01DX009 (ip), vehicle: Klucel (hydroxypropylcellulose) (HPC)
  T/C: 101 % of control
dose: 100.0 mg/kg/injection, schedule: Q01DX009 (ip), vehicle: Klucel (hydroxypropylcellulose) (HPC)
  T/C: 97 % of control
dose: 200.0 mg/kg/injection, schedule: Q01DX009 (ip), vehicle: Klucel (hydroxypropylcellulose) (HPC)
  T/C: 97 % of control

## O=C(O)C(=O)O.O=C(O)C(=O)O.OO.OO.[Nb]
[13]
  T/C: 93 % of control
[14]
  T/C: 98 % of control
[15]
  T/C: 87 % of control

## OC(CI)C(O)C(O)C(O)CI (stereo not drawn) (tested in a mixture with another compound)
dose: 50.0 mg/kg/injection, schedule: Q01DX001 (ip), vehicle: saline with Tween-80
  T/C: 96 % of control
[3]
  T/C: 100 % of control
[4]
  T/C: 96 % of control

## O=C1c2ccccc2CCC1(Br)Cc1ccccc1 (stereo not drawn)
[3]
  T/C: 98 % of control
[4]
  T/C: 96 % of control
[5]
  T/C: 94 % of control

## CC(=O)OCC1OC(N2C(=O)/C(=C/c3ccc4ccccc4c3)SC2=S)C(OC(C)=O)C(OC(C)=O)C1OC(C)=O (stereo not drawn)
dose: 3.13 mg/kg/injection, schedule: Q01DX005 (ip), vehicle: distilled water + Tween-80
  T/C: 88 % of control
dose: 6.25 mg/kg/injection, schedule: Q01DX005 (ip), vehicle: distilled water + Tween-80
  T/C: 94 % of control
dose: 12.5 mg/kg/injection, schedule: Q01DX005 (ip), vehicle: distilled water + Tween-80
  T/C: 96 % of control
dose: 25.0 mg/kg/injection, schedule: Q01DX005 (ip), vehicle: distilled water + Tween-80
  T/C: 98 % of control
dose: 50.0 mg/kg/injection, schedule: Q01DX005 (ip), vehicle: distilled water + Tween-80
  T/C: 100 % of control

## CN=[N+]([O-])C1(OC(C)=O)CCCC1
dose: 50.0 mg/kg/injection, schedule: Q01DX001 (ip), vehicle: saline
  T/C: 110 % of control
dose: 100.0 mg/kg/injection, schedule: Q01DX001 (ip), vehicle: saline
  T/C: 117 % of control

## CN=C([Se])NC
dose: 3.13 mg/kg/injection, schedule: Q01DX005 (ip), vehicle: saline with Tween-80
  T/C: 108 % of control
dose: 6.25 mg/kg/injection, schedule: Q01DX005 (ip), vehicle: saline with Tween-80
  T/C: 103 % of control
dose: 12.5 mg/kg/injection, schedule: Q01DX005 (ip), vehicle: saline with Tween-80
  T/C: 116 % of control
dose: 12.5 mg/kg/injection, schedule: Q04DX002 (ip), vehicle: saline with Tween-80
  T/C: 102 % of control
dose: 25.0 mg/kg/injection, schedule: Q04DX002 (ip), vehicle: saline with Tween-80
  T/C: 104 % of control

## COC1OC(COC(C)=O)C(OC(C)=O)C(OC(C)=O)[CH]1[Hg][O]C(C)=O (stereo not drawn)
dose: 6.25 mg/kg/injection, schedule: Q01DX009 (ip), vehicle: saline
  T/C: 106 % of control
dose: 12.5 mg/kg/injection, schedule: Q01DX009 (ip), vehicle: saline
  T/C: 108 % of control
dose: 25.0 mg/kg/injection, schedule: Q01DX009 (ip), vehicle: saline
  T/C: 97 % of control

## COc1ccc(COC(=O)Nc2ccc([N+](=O)[O-])cc2)cc1
[18]
  T/C: 96 % of control
[19]
  T/C: 96 % of control
[20]
  T/C: 96 % of control

Reference: PubChem BioAssay AID256 (DTP/NCI, 2004)
